Structures can show the parent of a compound that is named as a salt.
What follows are molecules tested against T1, human cloned 5-HT6 receptors (Homo sapiens, UniProt P50406) (assay: 5-HT6 binding affinity, [3H]-LSD displacement on membranes of Hela cells expressing human cloned 5-HT6 receptors). Conditions: 5-HT6 Binding Ki, [3H]-LSD 3.0 nM, Hela cell membranes, 120 min at room temperature.
T1 construct: expressed in transfected cells; host or cells: HeLa cells (membrane preparation)
Protocol: The affinity of test compounds for the serotonin 5-HT6 receptor is evaluated in the following manner. Cultured Hela cells expressing human cloned 5-HT6 receptors are harvested and centrifuged at low speed (1,000×g) for 10.0 min to remove the culture media. The harvested cells are suspended in half volume of fresh physiological phosphate buffered saline solution and recentrifuged at the same speed. This operation is repeated. The collected cells are then homogenized in ten volumes of 50 mM Tris.HCl (pH 7.4) and 0.5 mM EDTA. The homogenate is centrifuged at 40,000×g for 30.0 min and the precipitate is collected. The obtained pellet is resuspended in 10 volumes of Tris.HCl buffer and recentrifuged at the same speed. The final pellet is suspended in a small volume of Tris.HCl buffer and the tissue protein content is determined in aliquots of 10-25 μl volumes. Bovine Serum Albumin is used as the standard in the protein determination according to the method described in Lowry et al., J. Biol. Chem., 193:265 (1951). The volume of the suspended cell membranes is adjusted to give a tissue protein concentration of 1.0 mg/ml of suspension. The prepared membrane suspension (10 times concentrated) is aliquoted in 1.0 ml volumes and stored at −70° C. until used in subsequent binding experiments.
Binding experiments are performed in a 96 well microtiter plate format, in a total volume of 200 μl. […] The test compounds are added in 20.0 μl volume.
The reaction is allowed to proceed in the dark for 120 min at room temperature, at which time, the bound ligand-receptor complex is filtered off on a 96 well unifilter with a Packard Filtermate® 196 Harvester. The bound complex caught on the filter disk is allowed to air dry and the radioactivity is measured in a Packard TopCount® equipped with six photomultiplier detectors, after the addition of 40.0 μl Microscint®−20 scintillant to each shallow well. The unifilter plate is heat-sealed and counted in a PackardTopCount® with a tritium efficiency of 31.0%.
Binding in the presence of varying concentrations of test compound is expressed as a percentage of specific binding in the absence of test compound. The results are plotted as log % bound versus log concentration of test compound. Nonlinear regression analysis of data points with a computer assisted program Prisms® yields both the IC50 and the Ki values of test compounds with 95% confidence limits.
The amount of displacement by the test compound is given in percent (%) inhibition and is derived from the following equation:
[formula] where B0 is the amount of CPM bound in the presence of the testing agent. NSB represents the CPM bound in the presence of a saturating concentration of a displacer and TB represents the total amount of CPM bound at zero (0) concentration of test compound.
Alternatively, a linear regression line of data points is plotted, from which the IC50 value is determined and the Ki value is determined based upon the following equation: Ki=IC50/(1+L/KD) where L is the concentration of the radioactive ligand used and KD is the dissociation constant of the ligand for the receptor, both expressed in nM.

T1 sequence (P50406 whole entry): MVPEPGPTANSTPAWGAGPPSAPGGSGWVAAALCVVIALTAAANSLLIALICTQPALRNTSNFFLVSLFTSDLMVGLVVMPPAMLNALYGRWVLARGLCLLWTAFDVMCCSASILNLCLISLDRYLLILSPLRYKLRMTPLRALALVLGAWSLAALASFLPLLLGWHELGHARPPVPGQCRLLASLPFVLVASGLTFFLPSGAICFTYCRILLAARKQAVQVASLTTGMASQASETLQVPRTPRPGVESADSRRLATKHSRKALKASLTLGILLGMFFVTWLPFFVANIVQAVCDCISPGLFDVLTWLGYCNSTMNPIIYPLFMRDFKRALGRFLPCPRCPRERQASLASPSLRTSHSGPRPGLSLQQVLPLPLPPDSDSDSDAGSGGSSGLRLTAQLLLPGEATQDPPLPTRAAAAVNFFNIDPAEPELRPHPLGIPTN

| SMILES | Ki [nM] |
| --- | --- |
| CCCCn1nc(S(=O)(=O)c2cccc3ccccc23)c2cc(N3CCN(C)CC3)ccc21 [Example 48] | 4 |
| CN1CCN(c2ccc3[nH]nc(S(=O)(=O)c4cccs4)c3c2)CC1 [Example 54] | 8 |

Same assay, conditions: [3H]-LSD 3.0 nM, Hela cell membranes, 120 min at room temperature; read-out: 5-HT6 Binding Ki

| Ki [nM] | SMILES |
| --- | --- |
| 64 | CCn1nc(S(=O)(=O)c2ccccc2)c2cc(N3CCN(Cc4ccccc4)CC3)ccc21 [Example 12, 5-(4-Benzylpiperazin-1-yl)-1-ethyl-3-(phenylsulfonyl)-1H-indazole dihydrochloride] |
| 1 | CN1CCN(c2ccc3[nH]nc(S(=O)(=O)c4cccc5ccccc45)c3c2)CC1 [Example 14] |
| 2 | CCCn1nc(S(=O)(=O)c2cccc3ccccc23)c2cc(N3CCN(C)CC3)ccc21 [Example 45] |
| 2 | CN1CCN(c2ccc3c(c2)c(S(=O)(=O)c2cccc4ccccc24)nn3C)CC1 [Example 47] |
| 6 | CN1CCN(c2ccc3c(c2)c(S(=O)(=O)c2cccc4ccccc24)nn3Cc2cccc(Cl)c2)CC1 [Example 49] |
| 2 | CC(C)n1nc(S(=O)(=O)c2cccc3ccccc23)c2cc(N3CCN(C)CC3)ccc21 [Example 50] |
| 1 | CC(C)Cn1nc(S(=O)(=O)c2cccc3ccccc23)c2cc(N3CCN(C)CC3)ccc21 [Example 51] |
| 2 | CN1CCN(c2ccc3c(c2)c(S(=O)(=O)c2cccc4ccccc24)nn3Cc2ccccc2)CC1 [Example 52] |
| 5 | Cc1ccc(S(=O)(=O)c2n[nH]c3ccc(N4CCN(C)CC4)cc23)cc1 [Example 56] |
| 3 | CN1CCN(c2ccc3[nH]nc(S(=O)(=O)c4ccccc4F)c3c2)CC1 [Example 58] |
| 5 | CN1CCN(c2ccc3[nH]nc(S(=O)(=O)c4ccc(F)cc4)c3c2)CC1 [Example 60] |
| 1 | COc1cccc(S(=O)(=O)c2n[nH]c3ccc(N4CCN(C)CC4)cc23)c1 [Example 63] |
| 12 | COc1ccc(S(=O)(=O)c2n[nH]c3ccc(N4CCN(C)CC4)cc23)cc1 [Example 64] |
| 4 | CN1CCN(c2ccc3[nH]nc(S(=O)(=O)c4ccccc4Cl)c3c2)CC1 [Example 65] |
| 8 | CN1CCN(c2ccc3[nH]nc(S(=O)(=O)c4ccc(Cl)cc4)c3c2)CC1 [Example 67] |

Second part, the molecule before the results:

| SMILES | Ki [nM] |
| --- | --- |
| O=S(=O)(c1ccccc1)c1n[nH]c2ccc(N3CCN(Cc4ccccc4)CC3)cc12 [Example 4, 5-(4-Benzylpiperazin-1-yl)-3-(phenylsulfonyl)-1H-indazole hydrochloride] | 86 |
| COc1cc2[nH]nc(S(=O)(=O)c3ccccc3)c2cc1N1CCN(Cc2ccccc2)CC1 [Example 7, 5-(4-Benzylpiperazin-1-yl)-6-methoxy-3-(phenylsulfonyl)-1H-indazole hydrochloride] | 113 |
| COc1cc2c(cc1N1CCN(Cc3ccccc3)CC1)c(S(=O)(=O)c1ccccc1)nn2-c1ccccc1 [Example 8, 5-(4-Benzylpiperazin-1-yl)-6-methoxy-1-phenyl-3-(phenylsulfonyl)-1H-indazole hydrochloride] | 399 |
| COc1cc2c(cc1N1CCNCC1)c(S(=O)(=O)c1ccccc1)nn2-c1ccccc1 [Example 9, 6-Methoxy-1-phenyl 3-(phenylsulfonyl)-5-piperazin-1-yl-1H-indazole hydrochloride] | 97 |
| COc1cc2c(cc1N1CCNCC1)c(S(=O)(=O)c1ccccc1)nn2-c1ccc(C(F)(F)F)cc1 [Example 10, 6-Methoxy-3-(phenylsulfonyl)-5-(piperazin-1-yl)-1-[4-(trifluoromethyl)phenyl]-1H-indazole hydrochloride] | 224 |
| O=S(=O)(c1cccc2ccccc12)c1n[nH]c2ccc(N3CCNCC3)cc12 [Example 53] | 1 |

Same assay, conditions: test compound at 1 μM; displacement of [3H]-LSD

| inhibition at 1 µM [%] | SMILES |
| --- | --- |
| 53 | O=S(=O)(c1cccc(F)c1)c1n[nH]c2ccc(N3CCN(Cc4ccccc4)CC3)cc12 [Example 5, 5-(4-Benzylpiperazin-1-yl)-3-[(3-fluorophenyl)sulfonyl]-1H-indazole hydrochloride] |
| 67 | Cn1nc(S(=O)(=O)c2ccccc2)c2cc(N3CCN(Cc4ccccc4)CC3)ccc21 [Example 11, 5-(4-Benzylpiperazin-1-yl)-1-methyl-3-(phenylsulfonyl)-1H-indazole] |

Source: patent publication US7560470B2, “Heterocyclyl-3-sulfonylindazoles as 5-hydroxytryptamine-6 ligands” (Wyeth, priority 2003, dated 2009)
